Like-named read-outs stand apart in the source and are kept apart here. Numbered stars: 1 amine (or outer) side, 2 acyl side, 3 side chain; on linkers, the order of the positions; unused ones are H or OH. Bridge positions count the residues as written; N and C are the ends. Square brackets hold non-standard residues; d marks the D form. Peptide text beside a SMILES is read from it. I, II: the chains in the order shown. Actinocin(9to1) = Cc1c2oc3c(C)ccc(C(=O)[*:1])c3nc-2c(C(=O)[*:2])c(N)c1=O; NMeV = CN[C@H](C(=O)O)C(C)C; Sar = CNCC(=O)O
Assays:
human FXR [1] = target: T1, human FXR (Homo sapiens, UniProt Q96RI1); assay: FXR-bla reporter gene assay, agonist mode (qHTS); conditions: for FXR agonist activity: FXR-bla assay; for FXR agonist Efficacy: Table S3
human FXR [2] = target: T1, human FXR; assay: FXR-bla reporter gene assay, antagonist mode (CDCA-induced transactivation); conditions: for FXR antagonist activity: FXR-bla assay
[3] = test system: FXR-UAS-bla HEK293T cells; assay: Cell viability assay (CellTiter Glo) in the same well as FXR-bla
vitamin D receptor (VDR) = vitamin D receptor (VDR) (Homo sapiens, UniProt P11473); assay: VDR-bla reporter gene assay (agonist and antagonist modes)
[4] = IC50, FXR-bla antagonist mode, primary screening, CDCA-induced
[5] = Table S1, primary screening, 50 µM CDCA

T1 sequence (Q96RI1 with tags, fused parts or gaps limits assumed): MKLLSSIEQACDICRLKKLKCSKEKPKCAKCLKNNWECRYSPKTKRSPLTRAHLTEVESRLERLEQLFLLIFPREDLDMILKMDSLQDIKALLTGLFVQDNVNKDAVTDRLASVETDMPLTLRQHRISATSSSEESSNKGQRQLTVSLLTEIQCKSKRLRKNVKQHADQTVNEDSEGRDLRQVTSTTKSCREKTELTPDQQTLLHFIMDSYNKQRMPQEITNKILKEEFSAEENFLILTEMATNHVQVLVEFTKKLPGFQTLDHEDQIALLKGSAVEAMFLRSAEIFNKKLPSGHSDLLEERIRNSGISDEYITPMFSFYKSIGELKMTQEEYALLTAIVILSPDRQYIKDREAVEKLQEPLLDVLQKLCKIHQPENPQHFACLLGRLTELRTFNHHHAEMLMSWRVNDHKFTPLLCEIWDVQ
Chain of vitamin D receptor (VDR) (P11473 with tags, fused parts or gaps limits assumed): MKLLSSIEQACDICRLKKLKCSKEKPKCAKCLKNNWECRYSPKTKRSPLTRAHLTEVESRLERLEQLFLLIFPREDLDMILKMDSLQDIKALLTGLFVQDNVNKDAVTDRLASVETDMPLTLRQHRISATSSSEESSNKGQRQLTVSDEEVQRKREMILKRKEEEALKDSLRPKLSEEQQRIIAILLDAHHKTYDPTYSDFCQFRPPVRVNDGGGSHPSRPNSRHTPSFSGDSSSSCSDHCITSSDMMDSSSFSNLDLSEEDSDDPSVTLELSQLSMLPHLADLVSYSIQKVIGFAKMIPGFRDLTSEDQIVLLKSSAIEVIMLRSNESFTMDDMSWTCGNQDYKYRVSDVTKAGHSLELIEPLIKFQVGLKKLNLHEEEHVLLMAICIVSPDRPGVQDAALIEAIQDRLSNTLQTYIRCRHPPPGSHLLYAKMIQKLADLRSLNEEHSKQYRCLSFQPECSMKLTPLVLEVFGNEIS

Cc1c(COC(=O)[C@@H]2[C@H](/C=C(\Cl)C(F)(F)F)C2(C)C)cccc1-c1ccccc1 (racemic) [Bifenthrin]
FXR agonist mode EC50 (human FXR [1]; Table S1, primary screening): Inactive
FXR antagonist mode Efficacy (human FXR [2]): 50 ± 16
IC50 (human FXR [2]; FXR antagonist mode IC50): 11.3 ± 4.58 µM
FXR antagonist activity (human FXR [2]; CDCA-induced): highly selective FXR antagonists
Cytotoxicity IC50 ([3]; Table S1, primary screening): Inactive

Cc1c(F)c(F)c(COC(=O)[C@@H]2[C@H](/C=C(\Cl)C(F)(F)F)C2(C)C)c(F)c1F (racemic) [Tefluthrin]
FXR agonist mode EC50 (human FXR [1]; Table S1, primary screening): Inactive
FXR antagonist mode Efficacy (human FXR [2]): 46 ± 7
IC50 (human FXR [2]; FXR antagonist mode IC50): 12.4 ± 2.01 µM
Cytotoxicity IC50 ([3]; Table S1, primary screening): Inactive

C[C@]12CC[C@@H]3c4ccc(O)cc4CC[C@H]3[C@@H]1CC[C@H]2O [17α-Estradiol]
Cytotoxicity IC50 ([3]; Table S1, primary screening): Inactive

C[C@]12CC[C@@H]3c4ccc(O)cc4CC[C@H]3[C@@H]1CC[C@@H]2O [17β-Estradiol]
Cytotoxicity IC50 ([3]; Table S1, primary screening): Inactive

Cc1c2oc3c(C)ccc(C(=O)N[C@@H]4C(=O)N[C@H](C(C)C)C(=O)N5CCC[C@H]5C(=O)N(C)CC(=O)N(C)[C@@H](C(C)C)C(=O)O[C@@H]4C)c3nc-2c(C(=O)N[C@@H]2C(=O)N[C@H](C(C)C)C(=O)N3CCC[C@H]3C(=O)N(C)CC(=O)N(C)[C@@H](C(C)C)C(=O)O[C@@H]2C)c(N)c1=O [Actinomycin D] (I: T[dV]P[Sar][NMeV] / II: T[dV]P[Sar][NMeV]; ester I:1-I:C, II:1-II:C; linker I:N-II:N via Actinocin(9to1))
Cell viability IC50 [3]: Inactive

CCC[S+]([O-])c1ccc2[nH]c(NC(=O)OC)nc2c1 (centres unmarked) [Albendazole oxide]
FXR agonist mode EC50 (human FXR [1]; Table S1, primary screening): Inactive
FXR antagonist mode Efficacy (human FXR [2]): 35 ± 16%
IC50 (human FXR [2]; FXR antagonist mode IC50): 27.9 ± 5.02 µM
Cytotoxicity IC50 ([3]; Table S1, primary screening): Inactive

O=c1cc(-c2ccc(O)cc2)oc2cc(O)cc(O)c12 [Apigenin]
Cytotoxicity IC50 ([3]; Table S1, primary screening): Inactive

CCOC(=O)[C@H](CCc1ccccc1)N[C@H]1CCc2ccccc2N(CC(=O)O)C1=O [Benazepril]
Cytotoxicity Efficacy ([3]; Table S3): 87 ± 27%

COC(=O)C1=C(C)NC(C)=C(C(=O)OC2CCCN(Cc3ccccc3)C2)C1c1cccc([N+](=O)[O-])c1 (centres unmarked) [Benidipine]
FXR agonist activity (human FXR [1]): weak FXR agonist activity
FXR agonist mode EC50 (human FXR [1]; Table S1, primary screening): Inactive
IC50 (human FXR [2]; [4]): 24.8 µM
FXR antagonist mode Efficacy (human FXR [2]; [5]): 84 ± 17%
FXR antagonist Efficacy (human FXR [2]; Table S3, 50 µM CDCA): 84 ± 17%
Cytotoxicity IC50 ([3]; Table S1, primary screening): Inactive

CCCCNC(=O)n1c(NC(=O)OC)nc2ccccc21 [Benomyl]
FXR agonist mode EC50 (human FXR [1]; Table S1, primary screening): Inactive
FXR antagonist mode Efficacy (human FXR [2]): 21 ± 18%
IC50 (human FXR [2]; [4]): 18.3 µM
Cytotoxicity IC50 ([3]; Table S1, primary screening): Inactive

C[C@H](CCC(=O)O)[C@H]1CC[C@H]2[C@@H]3[C@H](O)C[C@@H]4C[C@H](O)CC[C@]4(C)[C@H]3CC[C@]12C [CDCA, Chenodeoxycholic acid]
Cytotoxicity Efficacy ([3]; Table S1, primary screening): 50 ± 1%

COCCOC(=O)C1=C(C)NC(C)=C(C(=O)OC/C=C/c2ccccc2)C1c1cccc([N+](=O)[O-])c1 (centres unmarked) [Cilnidipine]
EC50 (human FXR [1]): 8.08 ± 3.4 µM
FXR agonist activity (human FXR [1]): FXR agonists
FXR agonist mode Efficacy (human FXR [1]; Table S1, primary screening, CDCA 100%): 64 ± 7%
FXR agonist Efficacy (human FXR [1]): 64 ± 7%
IC50 (human FXR [2]): 31.1 ± 2.1 µM
FXR antagonist mode Efficacy (human FXR [2]; [5]): 64 ± 12%
FXR antagonist Efficacy (human FXR [2]; Table S3, 50 µM CDCA): 64 ± 12%
Cytotoxicity IC50 ([3]; Table S1, primary screening): Inactive

CC1(C)C(/C=C(\Cl)C(F)(F)F)C1C(=O)OC(C#N)c1cccc(Oc2ccccc2)c1 (centres unmarked) [Cyhalothrin]
FXR agonist mode EC50 (human FXR [1]; Table S1, primary screening): Inactive
FXR antagonist mode Efficacy (human FXR [2]): 50 ± 15
IC50 (human FXR [2]; FXR antagonist mode IC50): 21.3 ± 13.1 µM
VDR activity (vitamin D receptor (VDR)): antagonist activity
Cytotoxicity IC50 ([3]; Table S1, primary screening): Inactive

O=C(Nc1ccccc1)c1ccccc1SSc1ccccc1C(=O)Nc1ccccc1 [DTBBA, 2,2-Dithiobisbenzanilide]
FXR agonist mode Efficacy (human FXR [1]): 31 ± 13
EC50 (human FXR [1]; read-out: FXR agonist mode EC50, Table S1, primary screening): 24.6 ± 15.3 µM
FXR antagonist mode Efficacy (human FXR [2]): 51 ± 17
IC50 (human FXR [2]; read-out: FXR antagonist mode IC50): 18 ± 8.46 µM

CC(=O)O[C@@]12CO[C@@H]1C[C@H](O)[C@@]1(C)C(=O)[C@H](O)C3=C(C)[C@@H](OC(=O)[C@H](O)[C@@H](NC(=O)OC(C)(C)C)c4ccccc4)C[C@@](O)([C@@H](OC(=O)c4ccccc4)[C@H]21)C3(C)C [Docetaxel]
FXR agonist mode EC50 (human FXR [1]; Table S1, primary screening): Inactive
IC50 (human FXR [2]): 0.008 ± 0.005 µM
FXR antagonist activity (human FXR [2]; CDCA-induced): antagonistic effects
FXR antagonist mode Efficacy (human FXR [2]; [5]): 35 ± 4%
Cytotoxicity IC50 ([3]; Table S1, primary screening): Inactive

CO[C@H]1C[C@H](O[C@H]2[C@H](C)O[C@@H](O[C@@H]3/C(C)=C/C[C@@H]4C[C@@H](C[C@]5(C=C[C@H](C)[C@@H](C6CCCCC6)O5)O4)OC(=O)[C@@H]4C=C(C)[C@@H](O)[C@H]5OC/C(=C\C=C\[C@@H]3C)[C@]54O)C[C@@H]2OC)O[C@@H](C)[C@@H]1O [Doramectin]
FXR agonist mode Efficacy (human FXR [1]): 62 ± 9%
FXR agonist Efficacy (human FXR [1]): 62 ± 9%
FXR antagonist Efficacy (human FXR [2]): 152 ± 10%
FXR antagonist mode Efficacy (human FXR [2]): 152 ± 10%
Cytotoxicity Efficacy ([3]; Table S1, primary screening): 116 ± 6%
Cytotoxicity Efficacy ([3]; Table S3): 116 ± 6%
IC50 ([3]; read-out: Cytotoxicity IC50, Table S1, primary screening): 11 µM

COc1cccc2c1C(=O)c1c(O)c3c(c(O)c1C2=O)C[C@@](O)(C(=O)CO)C[C@@H]3O[C@H]1C[C@H](N)[C@@H](O)[C@H](C)O1 [Epirubicin]
Cell viability IC50 ([3]; Table 1, mean ± SD of 3 experiments): Inactive

CCOc1ccc2nc3cc(N)ccc3c(N)c2c1 [Ethacridine]
EC50 (human FXR [1]): 21.4 ± 12 µM
FXR agonist Efficacy (human FXR [1]): 31 ± 11%
FXR antagonist Efficacy (human FXR [2]; Table S3, 50 µM CDCA): 75 ± 17%

Reference: paper PMC4894417, “Quantitative High-Throughput Profiling of Environmental Chemicals and Drugs that Modulate Farnesoid X Receptor” (Scientific Reports, 2014)
